≈ marks a conversion by molar mass, not a printed value. Positions of bridges follow the written chain, without caps; N, C: chain ends. Residues, ends and D or L forms follow the SMILES beside them.

The test system of data set [1] is HepG2. As to the kind of experiment: Cytotoxicity against human HepG2 cells after 24 hrs by MTT assay. Type of data set: functional, cell-based. The note with it: HepG2, 24 h. On the technique in general: Formazan colour is commonly taken as a measure of viable cells.
The subject of data set [2] is MCF7. As to the kind of experiment: Cytotoxicity against human MCF7 cells after 24 hrs by MTT assay. Type of data set: functional, cell-based. The note with it: MCF7, 24 h.
Data set [3] concerns A549. Put plainly: Cytotoxicity against human A549 cells after 24 hrs by MTT assay. Type of data set: functional, cell-based. The note with it: A549, 24 h.
Data set [4] in a line: Cytotoxicity against human KATO III cells after 72 hrs by MTT assay. The format is functional, cell-based.
The test system of data set [5] is NCI-H187. As to the kind of experiment: Cytotoxicity against human NCI-H187 cells by resazurin microplate assay. Type of data set: functional, cell-based.
The subject of data set [6] is Vero. Put plainly: Cytotoxicity against African green monkey Vero cells by resazurin microplate assay. Type of data set: cell-based. The note with it: Chlorocebus sabaeus. A general note: Resazurin is reduced to fluorescent resorufin, in cell work by metabolically active cells.
In data set [7] the test system is MCF7. Put plainly: Cytotoxicity against human MCF7 cells by resazurin microplate assay. The format is functional, cell-based.
Data set [8] relates to HeLa. Put plainly: Cytotoxicity against human HeLa cells after 48 hrs by sulforhodamine B assay. Type of data set: functional, cell-based. In general terms: In SRB staining, fixed cells bind dye roughly in proportion to their protein.
Data set [9] deals with U-251. As to the kind of experiment: Cytotoxicity against human U251 cells by MTT assay. The format is functional, cell-based.
Data set [10] concerns PC-3. Put plainly: Cytotoxicity against human PC3 cells by MTT assay. The format is functional, cell-based.
The subject of data set [11] is HCT-15. Put plainly: Cytotoxicity against human HCT15 cells by MTT assay. Type of data set: functional, cell-based.
The test system of data set [12] is MCF7. As to the kind of experiment: Cytotoxicity against human MCF7 cells by MTT assay. Type of data set: functional, cell-based.
The subject of data set [13] is SK-LU-1. As to the kind of experiment: Cytotoxicity against human SKLU1 cells by MTT assay. Type of data set: functional, cell-based.
Data set [14] deals with L5178Y. As to the kind of experiment: Cytotoxicity against mouse L5178Y cells by MTT assay. The format is functional, cell-based.
In data set [15] the test system is PC-12. As to the kind of experiment: Cytotoxicity against rat PC12 cells by MTT assay. The format is functional, cell-based.
The subject of data set [16] is Vero. Put plainly: Cytotoxicity against African green monkey Vero cells. The format is cell-based. The note with it: Chlorocebus sabaeus.
Data set [17] has as its system A2780. As to the kind of experiment: Cytotoxicity against human cisplatin-sensitive A2780 cells by MTT assay. The format is functional, cell-based.
The test system of data set [18] is MCF7. Put plainly: Cytotoxicity against human MCF7 cells after 48 hrs by MTT assay. The format is functional, cell-based. To be noted: mcf7.
The test system of data set [19] is A549. Put plainly: Cytotoxicity against human A549 cells after 48 hrs by MTT assay. Type of data set: functional, cell-based. To be noted: a549.
The test system of data set [20] is SMMC-7721. As to the kind of experiment: Cytotoxicity against human SMMC7721 cells after 48 hrs by MTT assay. To be noted: smmc-7721. Type of data set: functional, cell-based.
Data set [21] can be described thus: Inhibition of TNFalpha-induced NFkappaB (unknown origin) activation expressed in HEK293 cells after 6 hrs by luciferase reporter gene based assay. Type of data set: cell-based. To be noted: Homo sapiens, HEK293, 6 h.
A short description of data set [22]: Antiproliferative activity against HUVEC assessed as growth inhibition. Type of data set: cell-based. To be noted: human, HUVEC cells.
Data set [23] relates to K562. Put plainly: Antiproliferative activity against human K562 assessed as growth inhibition. Type of data set: functional.
Data set [24] deals with A549. As to the kind of experiment: Cytotoxicity against human A549 cells by MTT assay. Type of data set: functional, cell-based.
In data set [25] the test system is MOLT-3. Put plainly: Cytotoxicity against human MOLT3 cells by XTT assay. Type of data set: functional, cell-based.
Data set [26] has as its system HuCC-A1. As to the kind of experiment: Cytotoxicity against human HuCCa1 cells by MTT assay. Type of data set: functional, cell-based.
Data set [27] deals with KB. Put plainly: Cytotoxicity against human KB cells by resazurin microplate assay. Type of data set: functional, cell-based.
Data set [28] concerns NCI-H460. Put plainly: Cytotoxicity against human NCI-H460 cells. The format is functional, cell-based.
Data set [29] deals with HL-60. As to the kind of experiment: Cytotoxicity against human HL60 cells by CCK8 assay. The format is functional, cell-based.
Data set [30] has as its system A549. Put plainly: Cytotoxicity against human A549 cells by CCK8 assay. Type of data set: functional, cell-based.
Data set [31] has as its system SMMC-7721. Put plainly: Cytotoxicity against human SMMC7721 cells by CCK8 assay. Type of data set: functional, cell-based.
For data set [32], the system named is MCF7. As to the kind of experiment: Cytotoxicity against human MCF7 cells by CCK8 assay. Type of data set: functional, cell-based.
The subject of data set [33] is SW480. As to the kind of experiment: Cytotoxicity against human SW480 cells by CCK8 assay. The format is functional, cell-based.
For data set [34], the system named is HL-60. As to the kind of experiment: Cytotoxicity against human HL60 cells by trypan blue exclusion assay. The format is functional, cell-based.
The subject of data set [35] is K562. As to the kind of experiment: Cytotoxicity against human K562 cells by trypan blue exclusion assay. Type of data set: functional, cell-based.

For `CC[C@H](C)[C@@H]1NC(=O)[C@@H]2CSSC[C@H](NC(=O)[C@H](CC(C)C)NC(=O)[C@H](C(C)C)NC1=O)C(=O)N2` (cyclo(CCIVL); disulfide 1-2), the values for the half-inhibitory concentration (IC50) in data set [1], in [2] and in data set [3] were 36 µM, 0.65 µM and 2.42 µM, respectively.

Take `C[C@H]1[C@@H](/C=C2\C=CC(=O)O2)[C@H]2C=CC=C[C@@H]1O2`: the half-maximal inhibitory concentration (IC50) in data set [4], in data set [5], in data set [6] and in data set [7] was 1.95 to 40.2 mg/L (≈ 8.47 to 174 µM) throughout.

For `C/C=C/[C@@H]1[C@@H]2C[C@@H](C)CC[C@@H]2[C@](C)(O)[C@@H]2Oc3c(-c4ccc(O)cc4)c[nH]c(=O)c3C(=O)[C@@H]12`, in data set [8], the half-inhibitory concentration (IC50) (in general, the concentration needed to halve the response being measured) turned out to be 8.8 µM.

With `CC(=O)O[C@H]1C=CC(=O)O[C@H]1[C@H]1[C@H]2C=CC=C[C@](O)(O2)[C@H]1C`, the IC50 in [4], in data set [5], in data set [6] and in data set [7] was 1.95 to 40.2 mg/L (≈ 6.37 to 131 µM) in each case.

In the case of `COC(=O)[C@@]12Oc3c(c(O)cc4c3[C@@H]3CC[C@]5(C4)C(=C(O)c4c(O)cc(C)cc4[C@@H]5O)C3=O)C(=O)C1=C(O)C=C[C@H]2O`, the 50% inhibitory concentration (IC50) in data set [9] is 5.32 µM; in data set [10] it was 8.62 µM; in data set [11], 10.3 µM; in data set [12] it was 7.93 µM; in data set [13] it was 1.16 µM.

For `CCCCCCCCCCC[C@@H](C)[C@@H]1CC(=O)N[C@@H]([C@H](C)O)C(=O)N[C@@H](C)C(=O)N[C@H](C)C(=O)N[C@@H](CCC(N)=O)C(=O)N[C@H](Cc2ccc(O)cc2)C(=O)N[C@@H]([C@@H](C)CC)C(=O)O1`, the IC50 in data set [14] was 5.71 µM; in data set [15] it was 9.55 µM.

In [16], `C[C@H]1C/C=C/[C@H]2[C@@H]3O[C@]3(C)[C@@H](C)[C@H]3[C@H](Cc4ccc(O)cc4)NC(=O)[C@]32OC(=O)O/C=C/[C@@](C)(O)C1=O` yielded an IC50 of 1.19 µM.

For the compound `C=C1[C@@H](C)[C@H]2[C@H](Cc3ccc(O)cc3)NC(=O)[C@]23[C@H](O)/C=C/[C@@H](C)C[C@@H](C)C/C=C/[C@H]3[C@@H]1O`, the results for the IC50 in [14] and in [17] were 2.55 µM and 6.97 µM, respectively.

On to `COc1cc(=O)oc2c1CO[C@@](C)(OC)[C@H]2C`, for which the half-maximal inhibitory concentration (IC50) in [18] came to 17.7 µM; in data set [19], 17.5 µM; in data set [20], 35.1 µM.

In the case of `CCCCC[C@@H]1OC2=C(C(=O)N(OC)C2C[S@+]([O-])C[C@@H](O)C(=O)O)[C@H](O)[C@@]1(C)O` (stereo partly drawn), it took 1.5 µM to reach half-maximal inhibition in data set [21] (IC50).

As for `O=C1c2cccc(O)c2[C@H]2C[C@@H]1c1ccc3cccc(O)c3c1O2`, the 50% growth inhibitory concentration (GI50) (as a rule, the concentration giving 50% growth inhibition) turned out to be 98.4 µM in data set [22] and 85.5 µM in data set [23].

For `COc1cccc2c1C(=O)c1c(O)c3c(c(O)c1C2=O)C[C@@](O)(C(=O)CO)C[C@@H]3O[C@H]1C[C@H](N)[C@H](O)[C@H](C)O1` [DOXORUBICIN], the IC50 stood at 4.6 µM in [14] and 5.71 µM in data set [15].

Consider `COCC1=C2C=C(C)OC=C2[C@H](O)[C@@](C)(O)C1=O`, for which the IC50 worked out at 46.5 mg/L (≈ 184 µM) in [24], 17.4 mg/L (≈ 69 µM) in [25] and 48.1 mg/L (≈ 191 µM) in data set [26].

Take `COc1cc2oc(C)cc(=O)c2c(O)c1CC(C)c1ccco1` (stereo not drawn): the figures for the half-maximal inhibitory concentration (IC50) in [27] and in data set [5] were 43 mg/L (≈ 137 µM) and 18 mg/L (≈ 57.3 µM), respectively.

As to `CC1(C)C=Cc2cc3c(cc2O1)NC(=O)[C@]31C[C@@]23NC(=O)[C@]4(CCCN4C2=O)C[C@@H]3C1(C)C`, half-maximal inhibition in [28] (IC50) was put at 55.9 µM.

As to `C=C1[C@@H](C)[C@H]2[C@H](Cc3ccccc3)NC(=O)[C@]23C(=O)/C=C/C(=O)CCC[C@@H](C)C/C=C/[C@H]3[C@@H]1O`, the IC50 in [29], in data set [30], in [31], in data set [32] and in data set [33] was 7.7 to 15.8 µM each time.

Take `COc1cc(=O)oc(C)c1CCC(C)=O`: the IC50 in data set [34] is 0.18 mg/L (≈ 0.856 µM); in data set [35], 0.3 mg/L (≈ 1.43 µM).

The record behind these values is ChEMBL document CHEMBL4411258, “Novel natural compounds from endophytic fungi with anticancer activity” (Eur J Med Chem, 2018).
